{
  "source": "ChEMBL document CHEMBL3886376",
  "about": "“Bicyclic pyridazine compounds as Pim inhibitors” (2015)",
  "key": {"[1]": {"target": "Serine/threonine-protein kinase pim-1 (Homo sapiens, UniProt P11309)", "test": "(§1) PIM Enzyme Assay: The assay for the determination of Pim activity is based on the formation of phosphorylated biotinylated-BAD peptide at the Serine 112 residue (S112) and employs HTRF (homogeneous time resolved fluorescence) technology to detect the product in a 96-well plate format. The phosphorylation of biotinylated-BAD (S112) peptide by full length recombinant Pim-1, Pim-2, or Pim-3 protein was detected with streptavidin:Allophycocyanin (APC) conjugate and a europium (Eu) labeled antibody directed against phosphorylated-BAD (S112). Excitation of Eu by a high energy laser light (337 nm) leads to a transfer of energy to the APC molecule, and results in an emission at 665 nm. The fluorescence is directly proportional to the amount of phosphorylated BAD peptide present in the reaction.Compounds were prepared in DMSO by conducting 3-fold serial dilutions to give a 10-point dosing curve having a high dose of 1 uM. A reference compound was included on each assay plate in order to validate that plate."}, "[2]": {"target": "Serine/threonine-protein kinase pim-2 (Homo sapiens, UniProt Q9P1W9)", "test": "as §1"}},
  "data": [
    {"smiles": "N[C@H]1CCC[C@@H](c2ccncc2Nc2ncc3ccc(-c4c(F)cccc4F)nn23)C1", "note": "(mixture of isomers)", "values": [
      {"measurement": "IC50", "setting": "[1]", "value": 4, "unit": "nM"},
      {"measurement": "IC50", "setting": "[2]", "value": 27, "unit": "nM"}
    ]}
  ]
}
